In the supplement of paper PMC10307832:

Columns and labels:
Experiment in all cases: relative viability (nuclei count vs DMSO), 5 days (fraction); higher = more cells survive
Ruxolitinib + AZD7762 = compound: N#CC[C@H](C1CCCC1)n1cc(-c2ncnc3[nH]ccc23)cn1 [Ruxolitinib] + NC(=O)Nc1cc(-c2cccc(F)c2)sc1C(=O)N[C@H]1CCCNC1 [AZD7762] (partner 0.2 µM)
Outline: (§1)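 Dosing by pin tool came one day after lung cancer cell lines were seeded in 1536-well plates, using either one drug or a fixed anchor-drug dose plus five library-drug doses (not always all listed) in √10 steps. After 5 days, nuclei were counted on 4× images. Relative viability is treated-well nuclei count divided by vehicle-well nuclei count, and values are medians of duplicate plates.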

Ruxolitinib + OSI-027 = compound: N#CC[C@H](C1CCCC1)n1cc(-c2ncnc3[nH]ccc23)cn1 [Ruxolitinib] + COc1cccc2cc(-c3nc([C@H]4CC[C@H](C(=O)O)CC4)n4ncnc(N)c34)[nH]c12 [OSI-027] (partner 0.5 µM)
Outline: as §1

Ruxolitinib + Pemetrexed = compound: N#CC[C@H](C1CCCC1)n1cc(-c2ncnc3[nH]ccc23)cn1 [Ruxolitinib] + Nc1nc2[nH]cc(CCc3ccc(C(=O)N[C@@H](CCC(=O)O)C(=O)O)cc3)c2c(=O)[nH]1 [Pemetrexed] (partner 0.2 µM)
Outline: as §1

Vismodegib + Linsitinib = compound: CS(=O)(=O)c1ccc(C(=O)Nc2ccc(Cl)c(-c3ccccn3)c2)c(Cl)c1 [Vismodegib] + C[C@]1(O)C[C@@H](c2nc(-c3ccc4ccc(-c5ccccc5)nc4c3)c3c(N)nccn32)C1 [Linsitinib] (partner 1 µM)
Outline: as §1

| Cell Line | relative viability (Ruxolitinib + AZD7762; first compound 0.08 µM) | relative viability (Ruxolitinib + AZD7762; first compound 0.253 µM) | relative viability (Ruxolitinib + AZD7762; first compound 0.8 µM) | relative viability (Ruxolitinib + AZD7762; first compound 2.53 µM) | relative viability (Ruxolitinib + AZD7762; first compound 8 µM) | relative viability (Ruxolitinib + OSI-027; first compound 0.253 µM) | relative viability (Ruxolitinib + OSI-027; first compound 0.8 µM) | relative viability (Ruxolitinib + OSI-027; first compound 2.53 µM) | relative viability (Ruxolitinib + OSI-027; first compound 8 µM) | relative viability (Ruxolitinib + Pemetrexed; first compound 0.08 µM) | relative viability (Ruxolitinib + Pemetrexed; first compound 0.253 µM) | relative viability (Ruxolitinib + Pemetrexed; first compound 0.8 µM) | relative viability (Ruxolitinib + Pemetrexed; first compound 2.53 µM) | relative viability (Ruxolitinib + Pemetrexed; first compound 8 µM) | relative viability (Vismodegib + Linsitinib; first compound 0.08 µM) | relative viability (Vismodegib + Linsitinib; first compound 0.253 µM) | relative viability (Vismodegib + Linsitinib; first compound 0.8 µM) | relative viability (Vismodegib + Linsitinib; first compound 2.53 µM) | relative viability (Vismodegib + Linsitinib; first compound 8 µM) | relative viability (Ruxolitinib + OSI-027; first compound 0.08 µM) |
| --- | --- | --- | --- | --- | --- | --- | --- | --- | --- | --- | --- | --- | --- | --- | --- | --- | --- | --- | --- | --- |
| NCI-H3122 | 0.98 | 1.07 | 1.05 | 0.943 | 0.891 | 0.296 | 1.22 | 0.51 | 0.569 | 0.212 | 0.198 | 0.192 | 0.19 | 0.188 | 1.03 | 1.01 | 1.01 | 0.924 | 0.965 |  |
| CAL-12T | 0.623 | 0.688 | 0.694 | 0.732 | 0.608 | 0.623 | 0.812 | 0.524 | 0.442 | 1.15 | 1.18 | 1.22 | 0.993 | 0.802 | 0.927 | 0.765 | 0.95 | 0.722 | 0.679 | 0.598 |
| HARA | 0.344 | 0.365 | 0.377 | 0.0804 | 0.304 | 0.372 | 0.601 | 0.416 | 0.481 | 0.206 | 0.27 | 0.225 | 0.221 | 0.229 | 0.844 | 0.944 | 0.76 | 0.967 | 1.04 | 0.727 |
| NCI-H1666 | 0.869 | 0.868 | 0.921 | 0.841 | 0.974 | 0.842 | 0.864 | 0.782 | 0.968 | 1.01 | 0.814 | 0.988 | 0.786 | 0.887 | 0.877 | 0.871 | 0.69 | 0.773 | 0.967 | 0.877 |
| NCI-H460 |  | 0.626 | 0.696 | 0.656 | 0.676 | 0.575 | 0.721 | 0.583 | 0.615 | 0.0622 | 0.0628 | 0.0588 | 0.0628 | 0.063 | 0.732 | 0.74 | 0.773 | 0.733 | 1.08 | 0.686 |
| NCI-H1792 | 0.557 | 0.636 | 0.63 | 0.475 | 0.391 | 0.624 | 0.675 | 0.529 | 0.6 | 0.883 | 0.608 | 0.778 | 0.564 | 0.425 | 0.532 | 0.558 | 0.409 | 0.572 | 0.503 | 0.694 |
| NCI-H2087 | 1.19 |  | 1.39 | 1.21 | 0.956 | 0.413 | 0.585 | 0.478 | 0.642 | 0.685 |  | 0.726 | 0.703 | 0.652 | 1 | 0.916 | 0.97 | 0.934 | 0.896 | 0.488 |
| NCI-H1355 | 0.729 | 0.735 | 0.878 | 0.604 | 0.668 | 0.328 | 0.388 | 0.373 | 0.318 | 1.1 | 0.977 | 1.09 | 1.02 | 1.01 | 0.844 | 0.724 | 0.798 | 0.808 | 0.856 | 0.382 |
| NCI-H838 | 0.925 | 0.874 | 0.87 | 0.776 | 0.721 | 0.318 | 0.386 | 0.266 | 0.267 | 0.259 | 0.246 | 0.266 | 0.227 | 0.204 | 0.869 | 0.967 | 0.992 | 0.99 | 1.02 | 0.39 |
| NCI-H2085 | 1.08 | 1.1 | 1.01 | 0.921 | 0.984 | 0.633 | 0.745 | 0.672 | 0.647 | 0.918 | 0.825 | 1.09 | 0.783 | 0.653 | 0.843 | 0.874 | 0.957 | 0.86 | 0.52 | 0.674 |
| NCI-H1651 | 0.512 | 0.449 | 0.533 | 0.545 | 0.689 | 0.718 | 0.842 | 0.659 | 0.723 | 0.578 | 0.597 | 0.593 | 0.599 | 0.643 | 0.922 | 0.924 | 0.925 | 0.931 | 0.961 | 0.774 |
| NCI-H1993 | 0.828 | 0.646 | 1.05 | 0.794 | 0.985 | 0.549 | 0.538 | 0.584 | 0.541 | 0.662 | 0.525 | 0.618 | 0.633 | 0.621 | 0.737 | 0.816 | 0.669 | 0.677 | 0.775 | 0.535 |
| NCI-H2126 | 0.954 | 1.12 | 1.09 | 0.995 | 0.967 | 0.664 | 0.74 | 0.794 | 0.689 | 0.757 | 0.736 | 0.789 | 0.721 | 0.663 | 0.667 | 0.711 | 0.638 | 0.762 | 0.677 | 0.758 |
| NCI-H1793 | 0.759 | 0.502 | 0.595 | 0.437 | 0.391 | 0.239 | 0.374 | 0.253 | 0.26 | 0.835 | 0.938 | 1.15 | 1.06 | 0.664 |  | 0.701 | 0.903 | 1.04 | 0.824 | 0.346 |
| LC-2-ad | 0.875 | 0.865 | 0.821 | 0.792 | 0.693 | 0.667 | 0.859 | 0.733 | 0.524 | 0.287 | 0.306 | 0.306 | 0.26 | 0.272 | 0.824 | 0.794 | 0.849 | 0.82 | 0.828 |  |
| NCI-H647 | 0.398 | 0.499 | 0.421 | 0.439 | 0.366 | 0.706 | 0.797 | 0.531 | 0.595 | 0.177 | 0.189 | 0.199 | 0.162 | 0.117 | 1.16 | 1.21 | 1.19 | 0.911 | 1.34 | 0.73 |
| LCLC-97TM1 | 0.401 | 0.267 | 0.317 | 0.287 | 0.53 | 0.3 | 0.362 | 0.488 | 0.563 | 0.21 | 0.21 | 0.184 | 0.175 | 0.147 |  |  | 0.174 |  | 0.211 | 0.502 |
